This is an account of results in patent US9423396B2, “Bodipy structure fluorescence probes for diverse biological applications” (National University of Singapore, priority 2011, dated 2016).

The data set can be described thus: Spectroscopic measurements (absorption, emission, quantum yield, extinction coefficient). Type of data set: physicochemical.
The mark [1] stands for this setting: BDNCA library, difference emission minus absorption.
The mark [2] stands for this setting: BDNCA library, extinction coefficient; in M-1 cm-1 (unit assumed).
[3] abbreviates: BDNCA library, fluorescence emission.
[4] abbreviates: absorption maximum, BDNCA library.
The mark [5] stands for this setting: difference of emission and absorption maxima.
Where [6] appears, read: extinction coefficient, BDNCA library; in M-1 cm-1 (unit assumed).
Setting [7] is: fluorescence emission maximum, BDNCA library.

Consider `COc1ccc(/C=C/C2=[N+]3C(=C(c4ccc(NC(=O)CCl)cc4)c4cccn4[B-]3(F)F)C(C)=C2)cc1Br` [BDNCA-260], for which the “Qunt. Yield” value (BDNCA library) worked out at 0.19. In addition, where the note is “BDNCA library, absorption”, the Abs came to 564 nm. Besides, the Flu-Abs under setting [1] was 27. Besides, under setting [2], the ε is listed as 86,499. Under setting [3], the Flu stood at 591.
As to `COc1ccc(/C=C/c2cc(C)c3n2[B-](F)(F)[N+]2=CC=CC2=C3c2ccc(NC(=O)CCl)cc2)c(Br)c1O` [BDNCA-261], the “Qunt. Yield” value (BDNCA library) came to 0.01. In addition, under “BDNCA library, absorption”, the Abs turned out to be 567 nm. Also, the Flu-Abs under setting [1] is listed as 29. Moreover, the ε under setting [2] is recorded as 49,703. Further, the Flu under setting [3] stood at 596.
For `CC1=CC(/C=C/c2c(Br)ccc3c2OCO3)=[N+]2C1=C(c1ccc(NC(=O)CCl)cc1)c1cccn1[B-]2(F)F` [BDNCA-262] the same measures were 0.07, 561 nm, 21, 68,924 and 582.
On to `CCCCc1ccc(/C=C/C2=[N+]3C(=C(c4ccc(NC(=O)CCl)cc4)c4cccn4[B-]3(F)F)C(C)=C2)cc1` [BDNCA-263], for which the “Qunt. Yield” value (BDNCA library) came to 0.17. This molecule also returned an Abs (BDNCA library, absorption) of 559 nm. Under setting [1], this molecule came in with a Flu-Abs of 23. For the same molecule, the ε under setting [2] is listed as 124,394. The Flu under setting [3] was 582.
The matching figures for `COc1cc(/C=C/C2=[N+]3C(=C(c4ccc(NC(=O)CCl)cc4)c4cccn4[B-]3(F)F)C(C)=C2)ccc1OCCBr` [BDNCA-268]: 0.12, 569 nm, 40, 54,371 and 609.
As to `COc1ccc(/C=C/C2=[N+]3C(=C(c4ccc(NC(=O)CCl)cc4)c4cccn4[B-]3(F)F)C(C)=C2)cc1Cl` [BDNCA-274], the “Qunt. Yield” value (BDNCA library) worked out at 0.15. Also, the Abs (BDNCA library, absorption) worked out at 563 nm. Further, under setting [1], the Flu-Abs came to 27. For the same molecule, the ε under setting [2] is on record as 71,670. Besides, the Flu under setting [3] is 590.
Regarding `COc1cc(Cl)cc(/C=C/C2=[N+]3C(=C(c4ccc(NC(=O)CCl)cc4)c4cccn4[B-]3(F)F)C(C)=C2)c1O` [BDNCA-275], the “Qunt. Yield” value (BDNCA library) is given as 0.01. The molecule also displayed an Abs (BDNCA library, absorption) of 563 nm. Also, the Flu-Abs under setting [1] is 22. Under setting [2], the ε is 60,686. The Flu under setting [3] is on record as 585.
For `Cc1cc(/C=C/c2ccc(Oc3ccc(Cl)cc3)cc2)n2c1C(c1ccc(NC(=O)CCl)cc1)=C1C=CC=[N+]1[B-]2(F)F` [BDNCA-277] the same measures were 0.15, 561 nm, 24, 65,080 and 585.
For `COc1cccc(/C=C/C2=[N+]3C(=C(c4ccc(NC(=O)CCl)cc4)c4cccn4[B-]3(F)F)C(C)=C2)c1Cl` [BDNCA-281], the “Qunt. Yield” value (BDNCA library) was found to be 0.14. For the setting “BDNCA library, absorption”, this molecule had an Abs of 556 nm. The Flu-Abs under setting [1] is on record as 20. The ε under setting [2] is on record as 79,908. In addition, the Flu under setting [3] stood at 576.
In the case of `COc1cc(Cl)cc(/C=C/C2=[N+]3C(=C(c4ccc(NC(=O)CCl)cc4)c4cccn4[B-]3(F)F)C(C)=C2)c1OC` [BDNCA-282], for the setting “BDNCA library”, the “Qunt. Yield” value turned out to be 0.12. Further, the Abs (BDNCA library, absorption) was 557 nm. The molecule further yielded a Flu-Abs under setting [1] of 20. Moreover, the ε under setting [2] was 52,723. This molecule gave a Flu under setting [3] of 577.
As for `CC1=CC(/C=C/c2cccc(O)c2Cl)=[N+]2C1=C(c1ccc(NC(=O)CCl)cc1)c1cccn1[B-]2(F)F` [BDNCA-283], the “Qunt. Yield” value (BDNCA library) amounted to 0.05. The same molecule came in with an Abs (BDNCA library, absorption) of 556 nm. In addition, the Flu-Abs under setting [1] came out at 18. Further, the ε under setting [2] is given as 27,460. Moreover, under setting [3], the Flu is 574.
For `CC1=CC(/C=C/c2ccc(-c3cccc(Cl)c3)o2)=[N+]2C1=C(c1ccc(NC(=O)CCl)cc1)c1cccn1[B-]2(F)F` [BDNCA-284] the same measures were 0.04, 595 nm, 42, 31,579 and 637.
With `CC1=CC(/C=C/c2c(C)cccc2Cl)=[N+]2C1=C(c1ccc(NC(=O)CCl)cc1)c1cccn1[B-]2(F)F` [BDNCA-285], under “BDNCA library”, the “Qunt. Yield” value is recorded as 0.12. Also, the Abs (BDNCA library, absorption) was 544 nm. In addition, the Flu-Abs under setting [1] turned out to be 27. Under setting [2], the ε is recorded as 44,211. This molecule also displayed a Flu under setting [3] of 571.
Regarding `CC1=CC(/C=C/c2ccc(C)c(Cl)c2)=[N+]2C1=C(c1ccc(NC(=O)CCl)cc1)c1cccn1[B-]2(F)F` [BDNCA-289], under “BDNCA library”, the “Qunt. Yield” value is given as 0.16. Moreover, the Abs (BDNCA library, absorption) stood at 560 nm. In addition, the Flu-Abs under setting [1] turned out to be 26. Besides, under setting [2], the ε is reported as 60,686. For the same molecule, under setting [3], the Flu worked out at 586.
For `CC1=CC(/C=C/c2ccc(Oc3cccc(Cl)c3)cc2)=[N+]2C1=C(c1ccc(NC(=O)CCl)cc1)c1cccn1[B-]2(F)F` [BDNCA-290] the same measures were 0.14, 557 nm, 20, 65,629 and 577.
As for `COc1cc(/C=C/C2=[N+]3C(=C(c4ccc(NC(=O)CCl)cc4)c4cccn4[B-]3(F)F)C(C)=C2)cc(Cl)c1OC` [BDNCA-294], the “Qunt. Yield” value (BDNCA library) amounted to 0.14. The Abs (BDNCA library, absorption) was 560 nm. For the same molecule, the Flu-Abs under setting [1] is given as 21. In addition, the ε under setting [2] was 63,158. The molecule also came in with a Flu under setting [3] of 581.
For `COc1cccc(Oc2ccccc2/C=C/C2=[N+]3C(=C(c4ccc(NC(=O)CCl)cc4)c4cccn4[B-]3(F)F)C(C)=C2)c1` [BDNCA-298] the same measures were 0.14, 558 nm, 23, 67,277 and 581.
Turning to `CC1=CC(/C=C/c2cccc(Oc3ccc(Cl)c(Cl)c3)c2)=[N+]2C1=C(c1ccc(NC(=O)CCl)cc1)c1cccn1[B-]2(F)F` [BDNCA-299], the “Qunt. Yield” value (BDNCA library) turned out to be 0.09. The Abs (BDNCA library, absorption) was found to be 556 nm. The Flu-Abs under setting [1] was 19. The ε under setting [2] is 49,703. In addition, the Flu under setting [3] worked out at 575.
As for `CC1=CC(/C=C/c2ccc(Oc3ccc(C)cc3)cc2)=[N+]2C1=C(c1ccc(NC(=O)CCl)cc1)c1cccn1[B-]2(F)F` [BDNCA-300], where the note is “BDNCA library”, the “Qunt. Yield” value is listed as 0.21. The Abs (BDNCA library, absorption) was determined as 563 nm. Under setting [1], the Flu-Abs came to 27. Besides, the ε under setting [2] was 102,151. Also, the Flu under setting [3] is 590.
Consider `COc1cc2ccccc2c(/C=C/C2=[N+]3C(=C(c4ccc(NC(=O)CCl)cc4)c4cccn4[B-]3(F)F)C(C)=C2)c1OC` [BDNCA-301], for which the “Qunt. Yield” value (BDNCA library) was found to be 0.24. Where the note is “BDNCA library, absorption”, this molecule had an Abs of 567 nm. Under setting [1], the Flu-Abs came to 36. Besides, under setting [2], the ε is listed as 85,950. The molecule also registered a Flu under setting [3] of 603.
`CC1=CC(/C=C/c2cccc(I)c2)=[N+]2C1=C(c1ccc(NC(=O)CCl)cc1)c1cccn1[B-]2(F)F` [BDNCA-303]: the “Qunt. Yield” value (BDNCA library) worked out at 0.12. For the setting “BDNCA library, absorption”, this molecule registered an Abs of 556 nm. Further, under setting [1], the Flu-Abs came out at 19. Also, under setting [2], the ε is given as 70,847. This molecule registered a Flu under setting [3] of 575.
The matching figures for `Cc1cc(/C=C/c2ccc(Oc3ccc(C=O)cc3)cc2)n2c1C(c1ccc(NC(=O)CCl)cc1)=C1C=CC=[N+]1[B-]2(F)F` [BDNCA-304]: 0.02, 561 nm, 25, 18,673 and 586.
In the case of `COc1cc(F)c(/C=C/c2cc(C)c3n2[B-](F)(F)[N+]2=CC=CC2=C3c2ccc(NC(=O)CCl)cc2)cc1OC` [BDNCA-305], the “Qunt. Yield” value (BDNCA library) came to 0.22. The Abs (BDNCA library, absorption) was 568 nm. The molecule also registered a Flu-Abs under setting [1] of 38. Also, the ε under setting [2] is 153,227. Under setting [3], this molecule yielded a Flu of 606.
Turning to `Cc1cc(/C=C/c2ccc(F)c(Oc3ccccc3)c2)n2c1C(c1ccc(NC(=O)CCl)cc1)=C1C=CC=[N+]1[B-]2(F)F` [BDNCA-311], under setting [4], the Abs was determined as 555 nm. Also, the Flu-Abs under setting [5] was 20. Moreover, the ε under setting [6] is reported as 57,117. Also, the Flu under setting [7] amounted to 575. The “Qunt. Yield” value (quantum yield, BDNCA library) stood at 0.09.
For `COc1cccc(/C=C/C2=[N+]3C(=C(c4ccc(NC(=O)CCl)cc4)c4cccn4[B-]3(F)F)C(C)=C2)c1F` [BDNCA-314] the same measures were 554 nm, 21, 52,998, 575 and 0.11.
The molecule `CC1=CC(/C=C/c2cccc([N+](=O)[O-])c2O)=[N+]2C1=C(c1ccc(NC(=O)CCl)cc1)c1cccn1[B-]2(F)F` [BDNCA-315] registered an Abs under setting [4] of 655 nm. Further, the ε under setting [6] was 15,652. Besides, the Flu result under setting [7] is “weak”. Besides, the “Qunt. Yield” value (quantum yield, BDNCA library) is given as “weak”.
In the case of `CCOc1cccc(/C=C/C2=[N+]3C(=C(c4ccc(NC(=O)CCl)cc4)c4cccn4[B-]3(F)F)C(C)=C2)c1OCC` [BDNCA-317], the Abs under setting [4] was found to be 557 nm. Besides, the Flu-Abs under setting [5] was determined as 22. Moreover, the ε under setting [6] is 45,858. The Flu under setting [7] is reported as 579. Also, the “Qunt. Yield” value (quantum yield, BDNCA library) was found to be 0.08.
The matching figures for `Cc1cc(/C=C/c2cc(F)ccc2O)n2c1C(c1ccc(NC(=O)CCl)cc1)=C1C=CC=[N+]1[B-]2(F)F` [BDNCA-318]: 564 nm, 25, 18,398, 589 and 0.02.
As for `Cc1cc(/C=C/c2ccc(-c3ccccc3)o2)n2c1C(c1ccc(NC(=O)CCl)cc1)=C1C=CC=[N+]1[B-]2(F)F` [BDNCA-319], under setting [4], the Abs was 598 nm. The Flu-Abs under setting [5] was found to be 58. Besides, the ε under setting [6] was 54,096. Under setting [7], this molecule showed a Flu of 656. In addition, where the note is “quantum yield, BDNCA library”, the “Qunt. Yield” value turned out to be 0.05.
